Results published in patent US10676449B2, “Electronically activated strained alkynes” (Wisconsin Alumni Research Foundation, priority 2017, dated 2020).

Key:
Format in all cases: physicochemical
[1] = experimental rate comparison of cycloalkynes with diazoacetamide 8 and azidoacetamide 7; conditions: ratio of rate constants with diazoacetamide and azidoacetamide
Description: For these exploratory studies, diazoacetamide 8 (Table 3) and azidoacetamide 7 were chosen because of the increased nucleophilicity of 8 as compared to azide 7 and its ability to survive cellular metabolism. When comparing rate differences with diazoacetamide 8 and azidoacetamide 7 for common cycloalkynes, DIBAC reacted˜5-times faster with the diazoacetamide than the analogous azide in 1:1 CD3CN:D2O. […] At the same time, these compounds provide for complete selectivity that is as of yet lacking in cyclooctynes. It was hypothesized by the present inventors that properly positioned heteroatoms in sulfamate-derived cyclooctynes would lead to an increase in diazo-selective reactivity over azides, thus enabling orthogonal bioconjugation techniques.
The effects of the various heteroatoms on this increased chemoselectivity were investigated computationally. […] In contrast, the ΔΔG‡ is expected to increase, likely due to increased steric repulsion from the bulky Boc-group. This difference in rate provides ˜9:1 selectivity in competition experiments involving 1:1:1 mixtures of diazoacetamide […]:alkyne (4d, 4e). Efforts to improve the selectivity for reaction with 1 were undertaken by examining the effects of both propargylic and homopropargylic heteroatoms in 4.

[2] = strain-promoted 1,3-dipolar cycloaddition kinetics with benzyl azide (experimental second order rate constants); conditions: for k2: 1,3-dipolar cycloaddition with benzyl azide 5, acetonitrile, ambient temperatures; for krel.: reaction with benzyl azide, relative to 4b = 1.0; for Experimental Rate: CD3CN; for change of rate of reaction with benzyl azide, in words: relative to the comparator alkyne
Description: The reactivity of the novel strained alkyne derivatives disclosed herein were first assessed using benzyl azide 5 as a model substrate (Table 1, model reaction at top). […] When steric hindrance was increased by placing the more bulky isopropyl group at C1, the rate of the reaction slowed to a sixth of that of […]. […] The effects of the heteroatoms in the ring were similarly pronounced. […] For Me-substituted substrates 4a and 4d, the rates slowed to roughly half their unprotected values. While a more electron-poor nitrogen heteroatom is expected to result in a stronger electronic effect and an expected increase in reaction rate, the conflicting effects of bond lengthening and steric repulsion between the Boc and R^1 groups overrides any benefit and results in a net slowing of rate. Similarly, when the homopropargylic oxygen atom was replaced with a Boc-protected nitrogen atom, the rate fell dramatically to an eighteenth of that of the sulfamate (4f). The fastest substrate, 1a, compares favorably to other reported strained alkynes. It is faster than OCT, the exocyclic heteroatom-activated MOFO, and the endocyclic heteroatom-activated alkynes reported by Toomoka et al., supra. The reaction rate of 1a is surpassed only slightly by DIFO.
With the difluorinated SNO-OCT 8a in hand, preliminary kinetic studies were carried out (Table 7) and compared to computed and experimental rates of both the parent SNO-OCTs 4 and 6, as well as 8. A rate enhancement of 13-fold was predicted in moving from the parent SNO-OCT 6 (entry 1, right column) to the difluorinated SNO-OCT 8 (entry 3, right column) in reactions with alkyl azides; this was quite similar to the experimental rate enhancement seen in moving from 4 to 8a of 18× (entries 1 and 3 in the left column).

[3] = experimental cycloaddition of SNO-OCTs with diazoacetamide; conditions: dipole diazoacetamide; CD3CN
Description: A rate enhancement of ˜300-fold was predicted in moving from the parent SNO-OCT 6 (entry 2, right column) to the difluorinated SNO-OCT 8 (entry 4, right column) in reactions with alkyl diazaoacetamides. Experimentally, the rate enhancement in moving from 4 to 8a (entries 2 and 4 in the left column) could not be determined using proton NMR spectroscopy to monitor the progress of the reaction. […] While orthogonality was also observed for reactions of 4 and 8a with azides, the selectivity appeared to be lower than that predicted for the diazoalkanes.

Molecule	k2 [2] [M⁻¹ s⁻¹]	krel. [2]	change of rate of reaction with benzyl azide, in words [2]	also measured
dibenzoazacyclooctyne [DIBAC, reference compound]	–	–	–	k2 ratio, diazoacetamide:azidoacetamide ([1]; CD3CN:D2O = 1:1): 6.5; k2 ratio, diazoacetamide:azidoacetamide ([1]; in CD3CN): 2.0
CC1C#CCCOS(=O)(=O)N1 (stereo not drawn) [4a]	0.066	2.6	–	k2 ratio, diazoacetamide:azidoacetamide ([1]; CD3CN:D2O = 1:1): 8.5; k2 ratio, diazoacetamide:azidoacetamide ([1]; in CD3CN): 3.0
[N-]=[N+]=NCc1ccccc1 [compound 5]	–	–	–	Experimental Rate (value in parentheses) ([2]; dipole Bn—N3, 2:1 D2O:CD3CN): 0.13 M⁻¹ s⁻¹; Experimental Rate ([2]; dipole Bn—N3): 0.087 M⁻¹ s⁻¹
CC(C)C1C#CCCOS(=O)(=O)N1 (stereo not drawn) [4c]	0.0040	0.16	a sixth	–
CC1C#CCCOS(=O)(=O)N1C(=O)OC(C)(C)C (stereo not drawn) [4d]	0.037	1.5	roughly half	k2 ratio, diazoacetamide:azidoacetamide ([1]; in CD3CN): 5.0
CCC1C#CC(F)(F)COS(=O)(=O)N1 (stereo not drawn) [8a]	–	–	–	Experimental Rate ([2]; dipole Bn—N3): 0.46 M⁻¹ s⁻¹; experimental rate enhancement in moving from 4 ([2]; reactions with alkyl azides (Bn—N3)): 18 ×
CCCCCC1C#CCCOS(=O)(=O)N1 (stereo not drawn) [compound 4]	–	–	–	Experimental Rate [3]: 0.27 M⁻¹ s⁻¹
CC1C#CC(C)NS(=O)(=O)OC1 (stereo not drawn) [4g]	0.047	1.9	–	–
CCCCCC1C#CCCOS(=O)(=O)N1 (stereo not drawn) [4b]	–	1.0	–	–
CCCCCC1C#CCCOS(=O)(=O)N1C(=O)OC(C)(C)C (stereo not drawn) [4e]	0.042	1.7	slowed slightly	–
CCCCCC1C#CCCN(C(=O)OC(C)(C)C)S(=O)(=O)N1 (stereo not drawn) [4h]	0.0014	0.056	–	–
CC(C)C1C#CCCOS(=O)(=O)N1C(=O)OC(C)(C)C (stereo not drawn) [4f]	–	–	an eighteenth	–
